This note sets out measurements from the SangsterLogP compilation.

For `COc1ccc(CCNCC(O)COc2ccc(-c3ncc(C)[nH]3)cc2Br)cc1OC` (centres undefined), the logP (commonly the decadic logarithm of the partition coefficient of the neutral form, usually between octanol and water) came out at 2.3.

As for `COc1ccc(CCNC[C@H](O)COc2ccc(-c3ncc(CO)[nH]3)cc2)cc1OC`, the lipophilicity (logP) came out at 0.63.

Molecule `CCCNCC(O)COc1ccc(-c2ncc(-c3cccs3)[nH]2)cc1` (centres undefined) gave a logP of 2.84.

`COCCc1cnc(-c2ccc(OC[C@@H](O)CNCCc3ccc(OC)c(OC)c3)cc2)[nH]1` yielded a logP of 2.06.

For the molecule `Cc1cnc(Cc2ccc(OC[C@@H](O)CNC(C)(C)C)cc2)[nH]1`, the logP stood at 1.11.

Molecule `COc1ccc(CCNC[C@H](O)COc2ccc(Cc3ncc(C)[nH]3)cc2)cc1OC` registered a logP of 1.28.

`COc1ccc(CCNCC(O)COc2ccc(-c3ncco3)cc2)cc1OC` (centres undefined) gave a logP of 2.6.

In turn, `CC(C)(C)NC[C@H](O)COc1ccc(Cc2ncc(-c3cccs3)[nH]2)cc1` gave a lipophilicity (logP) of 2.57.

In the case of `CC(C)NCC(O)COc1ccc(-c2ncc[nH]2)cc1` (centres undefined), the logP came out at 0.65.

Molecule `COc1ccc(CCNC[C@H](O)COc2ccc(-c3ncc(Br)[nH]3)cc2Cl)cc1OC` registered a log partition coefficient (logP) of 2.73.

On to `OC(CNCCc1ccncc1)COc1ccc(-c2ncc(-c3cccs3)[nH]2)cc1` (centres undefined), for which the log partition coefficient (logP) worked out at 2.25.

In the case of `CCCCNC(=O)NCCNCC(O)COc1ccc(-c2ncc(C)[nH]2)cc1` (centres undefined), the log partition coefficient (logP) came out at 1.24.

Consider `COc1ccc(CCNC[C@H](O)COc2ccc(-c3ncc(C(C)(C)C)[nH]3)cc2)cc1OC`, for which the logP turned out to be 2.86.

`COc1ccc(CCNC[C@H](O)COc2ccc(-c3nc(Cl)c(C)[nH]3)cc2)cc1OC` had a logP of 2.35.

`COc1ccc(CCNC[C@H](O)COc2ccc(-c3ncc(C(N)=O)[nH]3)cc2)cc1OC` gave a logP of 0.99.

Molecule `COc1ccc(CCNC[C@H](O)COc2ccc(-c3nc(Br)c(C)[nH]3)cc2)cc1OC` yielded a lipophilicity (logP) of 2.69.

As to `COc1ccc(CCNC[C@H](O)COc2ccc(-c3ncc(Cl)[nH]3)cc2)cc1OC`, the lipophilicity (logP) came out at 2.4.

The molecule `CCOC(=O)c1cnc(-c2ccc(OC[C@@H](O)CNCCc3ccc(OC)c(OC)c3)cc2)[nH]1` yielded a logP of 2.3.

As for `COc1ccc(CCNCC(O)COc2ccc(OCc3ncc[nH]3)cc2)cc1OC` (centres undefined), the log partition coefficient (logP) was 1.21.

`O=C(NCCNCC(O)COc1ccc(-c2ncc[nH]2)cc1)Nc1ccccc1` (centres undefined) came in with a log partition coefficient (logP) of 1.19.

As to `COCc1cnc(-c2ccc(OC[C@@H](O)CNCCc3ccc(OC)c(OC)c3)cc2)[nH]1`, the logP is 1.71.

`CCOCc1cnc(-c2ccc(OC[C@@H](O)CNCCc3ccc(OC)c(OC)c3)cc2)[nH]1` registered a lipophilicity (logP) of 0.84.

Turning to `COc1ccc(CCNC[C@H](O)COc2ccc(-c3ncc(-c4cccs4)[nH]3)cc2C)cc1OC`, the log partition coefficient (logP) is 3.32.

For the molecule `COc1ccc(CCNC[C@H](O)COc2ccc(-c3nc(C(C)=O)c(C)[nH]3)cc2)cc1OC`, the log partition coefficient (logP) came to 2.14.

For `CC(C)NC[C@H](O)COc1ccc(-c2ncc(C(C)C)[nH]2)cc1`, the logP stood at 2.23.

`COc1ccc(CCNCC(O)COc2ccc(-c3ncc(C)[nH]3)cc2OC)cc1OC` (centres undefined): the logP came out at 1.89.

In turn, `COCc1nc(-c2ccc(OC[C@@H](O)CNCCc3ccc(OC)c(OC)c3)cc2)[nH]c1C` had a lipophilicity (logP) of 1.07.

Consider `COc1ccc(CCNC[C@H](O)COc2ccc(-c3ncc(C(C)=O)[nH]3)cc2)cc1OC`, for which the logP came out at 1.23.

For `COc1ccc(CCNC[C@H](O)COc2ccc(Cc3ncc(-c4cccs4)[nH]3)cc2)cc1OC`, the logP stood at 2.28.

Consider `CC(C)NCC(O)COc1ccc(-c2ncc(-c3cccs3)[nH]2)cc1` (centres undefined), for which the logP turned out to be 2.18.

`CCOCCNCC(O)COc1ccc(-c2ncc(-c3cccs3)[nH]2)cc1` (centres undefined) registered a log partition coefficient (logP) of 2.25.

Molecule `COc1ccc(CCNCC(O)COc2ccc(-c3ncc(C)n3C)cc2)cc1OC` (centres undefined) came in with a logP of 1.72.

Molecule `COc1ccc(CCNC[C@H](O)COc2ccc(-c3ncc(Br)[nH]3)cc2)cc1OC` came in with a logP of 1.9.

In the case of `COc1ccc(CCNCC(O)COc2ccc(-c3nccn3C)cc2)cc1OC` (centres undefined), the log partition coefficient (logP) came out at 2.08.

On to `CC(C)NC[C@H](O)COc1ccc(Cc2ncc(Br)[nH]2)cc1`, for which the logP was 1.35.

As to `COc1ccc(CCNC[C@H](O)COc2ccc(CCc3ncc(-c4cccs4)[nH]3)cc2)cc1OC`, the logP came out at 2.08.

The molecule `COc1ccc(CCNC[C@H](O)COc2ccc(COCc3ncc[nH]3)cc2)cc1OC` gave a lipophilicity (logP) of 1.29.

As for `COc1ccc(CCNC[C@H](O)COc2ccc(-c3ncc(C(C)C)[nH]3)cc2)cc1OC`, the logP was determined as 2.49.

As to `COc1ccc(CCNC[C@H](O)COc2ccc(Cc3ncc(C(C)=O)[nH]3)cc2)cc1OC`, the logP turned out to be 0.87.
